Molecules are shown by their SMILES. Activity calls are given as the source filed them. No cut-off for these calls is given here.

For data set [1], the system named is Escherichia coli. Briefly: Antimicrobial activity against Escherichia coli AB1157 assessed as reduction in colony formation at 1 mM. Type of data set: organism-based. The following applies: in vivo, 1000 µM.
The subject of data set [2] is Escherichia coli. Nature of the data set: Induction of sensitization to irradiation in Escherichia coli AB1157 under hypoxic condition assessed as reduction in colony formation at 1 mM measured after irradiation. Type of data set: functional, organism-based.
Data set [3] concerns Escherichia coli. Nature of the data set: Induction of sensitization to irradiation in Escherichia coli AB1157 under oxic condition assessed as reduction in colony formation at 1 mM measured after irradiation. The following applies: in vivo, 1000 µM. It is filed as organism-based.

In the case of `O=[N+]([O-])c1ncn(CCO)c1Cl`, the Activity result in the data set with Escherichia coli [1] was “Non-toxic”; in the data set on Escherichia coli [3], “Toxic”. Besides, the outcome in the data set with Escherichia coli [2] was Active.

Turning to `O=[N+]([O-])c1cnc2n1CCO2`, the Activity result was “Non-toxic” with Escherichia coli [1] and “Toxic” in the data set with Escherichia coli [3]. In the data set with Escherichia coli [2], the outcome was Active.

On to `COCC(O)Cn1ccnc1[N+](=O)[O-]` (configuration not stated), for which the result with Escherichia coli [2] was Active.

These data come from ChEMBL document CHEMBL3227964 (J Med Chem, 1979).
